Measurements from the supplement of paper PMC10949913.
Structures can show the parent of a compound that is named as a salt. ± gives the standard deviation of the averaged measurements.

How the values were obtained:
[1] = system: CU-ACC1; test: ExcessHSA synergy score with TAK-243; higher = less synergy (negative = synergistic); conditions: combined with: TAK-243 (MLN-7243) matrix, 9-point 1:2 dilution
Method: (§1)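 Each drug was tested at 9 points with 1:2 dilution; viability was read by CellTiter-Glo as in the single-agent screen. Synergy is scored as ExcessHSA (sum of excess over highest single agent; negative = synergy) and the Beta interaction parameter (<1 synergy).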

[2] = system: NCI-H295R; test: as above; conditions: combined with: TAK-243 (MLN-7243) matrix, 9-point 1:2 dilution
Method: as §1

| SMILES | ExcessHSA synergy score with TAK-243 [1] | ExcessHSA synergy score with TAK-243 [2] |
| --- | --- | --- |
| CNc1nc(NC2CCN(Cc3ccc4c(cc(C#N)n4C[C@H](C)N4CCN(S(C)(=O)=O)CC4)c3C)CC2)c2cc(CC(F)(F)F)sc2n1 [Ziftomenib (KO-539)] | -443 | -888 |
| CC(C)C[C@H](NC(=O)[C@H](CCc1ccccc1)NC(=O)CN1CCOCC1)C(=O)N[C@@H](Cc1ccccc1)C(=O)N[C@@H](CC(C)C)C(=O)[C@@]1(C)CO1 [Carfilzomib] | -949 | -675 |
| Cc1cc2c(C(N)=O)cccc2n1-c1nc2c(c(NCc3ccccc3)n1)COCC2 [CB-5083] | -143 | 71.1 |
| CS(=O)(=O)c1ccc(C(=O)Nc2ccc(Cl)c(-c3ccccn3)c2)c(Cl)c1 [Vismodegib] | -206 | -5.69 |
| CC[C@@H]1C(=O)N(C)c2cnc(Nc3ccc(C(=O)N[C@H]4CC[C@H](N5CCN(CC6CC6)CC5)CC4)cc3OC)nc2N1C(C)C [Volasertib] | -422 | -938 |
| Nc1c(C(=O)c2ccccc2)sc2[nH]c(=O)c(C(=O)O)cc12 | -23.4 | -51.1 |
| O=C(O)C1(C(=O)O)CCC1.[NH2-].[NH2-].[Pt+2] [Carboplatin] | -188 | -21.5 |
| COc1cc([C@@H](CC(=O)O)c2ccc(C)c(CN3C[C@@H](C)Oc4ccccc4S3(=O)=O)c2)cc2nnn(C)c12 [KI-696] | 533 | 351 |
| Nc1ncnc2c1ncn2C(C=O)OC(C=O)CO (stereo not given) [Adenosine Dialdehyde] | 349 | 712 |
| Cc1cc(Oc2ccc3nc(COc4ccc(CC5SC(=O)NC5=O)cc4)n(C)c3c2)cc(C)c1N (stereo not given) [Efatutazone] | -278 | -69.9 |
| O=C(NCc1ccc(S(=O)(=O)c2cccc(C(F)(F)F)c2)cc1)c1cnc2[nH]ncc2c1 [GNE-618] | -406 | -555 |
| O=c1[nH]c(CSC2CCC(O)CC2)nc2cc(OCC3CC3)cc(F)c12 (stereo not given) | 650 | 1170 |
| CNC(=O)c1ccc(Nc2ncc(C(F)(F)F)c(NCc3nccnc3N(C)S(C)(=O)=O)n2)cc1 [Defactinib] | 223 | 245 |
| CCS(=O)(=O)c1cc2cc(C[C@](O)(CC(C)(C)c3ccc(F)cc3C(N)=O)C(F)(F)F)[nH]c2cn1 | 653 | 885 |
| CC(C)[C@@H](CS(=O)(=O)C(C)C)N1C(=O)[C@@](C)(CC(=O)O)C[C@H](c2cccc(Cl)c2)[C@H]1c1ccc(Cl)cc1 [AMG 232] | -130 | 236 |
| CC(C)c1cc(-c2n[nH]c(=O)n2-c2ccc3c(ccn3C)c2)c(O)cc1O [Ganetespib (STA-9090)] | 400 | -59.8 |
| COc1ncnc(C2CC2)c1-c1ncc2cnn(Cc3ccc(-c4nc(C(F)(F)F)cn4C(C)C)cc3)c2n1 [KSQ-4279] | -545 | -796 |
| C=CCNC1=C2C[C@@H](C)C[C@H](OC)[C@H](O)[C@@H](C)/C=C(\C)[C@H](OC(N)=O)[C@@H](OC)/C=C\C=C(/C)C(=O)NC(=CC1=O)C2=O [17-AAG] | 421 | -251 |
| COC(=O)[C@]12CCC(C)(C)C[C@H]1[C@H]1C(=O)C=C3[C@@]4(C)C=C(C#N)C(=O)C(C)(C)[C@@H]4CC[C@@]3(C)[C@]1(C)CC2 [CDDO-Me] | 94.3 | 271 |
| Nc1ccn([C@@H]2O[C@H](CO)[C@@H](O)[C@@H]2O)c(=O)n1 [Cytarabine] | 457 | 789 |
| NCCCC[C@H](NC(=O)[C@@H](NC(=O)[C@H](Cc1c[nH]c2ccccc12)NC(=O)[C@H](CCCCN)NC(=O)[C@H](CCCCN)NC(=O)[C@H](Cc1c[nH]c2ccccc12)NC(=O)[C@H](Cc1c[nH]c2ccccc12)NC(=O)[C@H](CCCCN)NC(=O)[C@@H](N)CCCCN)C(c1ccccc1)c1ccccc1)C(N)=O [Oncopore] | 401 | 391 |
| CSC[C@H]1CN(Cc2c[nH]c3c(N)ncnc23)C[C@@H]1O [MT-DADMe-ImmA] | -323 | 422 |
| CC(=O)N1CCC(Nc2cc(C(=O)NC[C@H](O)CN3CCc4ccccc4C3)ncn2)CC1 | 517 | 649 |
| CNC(=O)c1cccc(-c2ccc3c(N4CCOC[C@@H]4C)nc(N4CCOC[C@@H]4C)nc3n2)c1 [Vistusertib] | -211 ± 410 | -549 ± 350 |
| CO/C1=C\C(C)=C\[C@@H](C)[C@@H](O)[C@@H](C)C/C(C)=C/C=C/[C@H](OC)[C@@H]([C@@H](C)[C@@H](O)[C@H](C)[C@@]2(O)C[C@@H](O)[C@H](C)[C@@H](C(C)C)O2)OC1=O [Bafilomycin A1] | 14.5 | -139 |

| SMILES | ExcessHSA synergy score with TAK-243 [1] | ExcessHSA synergy score with TAK-243 [2] |
| --- | --- | --- |
| O=C(O)c1ccc(CN2CCC(CN[C@@H]3C[C@H]3c3ccccc3)CC2)cc1 | -27.5 | 23.7 |
| O=C(Nc1ccnc(C(F)(F)F)c1)c1cnn(-c2cccc3c(=O)[nH]ccc23)c1C(F)(F)F | -300 | -544 |
| CO[C@@]12[C@H](COC(N)=O)C3=C(C(=O)C(C)=C(N)C3=O)N1C[C@@H]1N[C@@H]12 [Mitomycin C] | 133 | 200 |
| C[C@@H]1CN(Cc2ccc(F)cc2)[C@@H](C)CN1C(=O)c1cc2c(C(=O)C(=O)N(C)C)cn(C)c2cc1Cl [Talmapimod] | 218 | 657 |
| C[C@@H]1C[C@H]2[C@@H]3CCC4=CC(=O)C=C[C@]4(C)[C@@]3(F)[C@@H](O)C[C@]2(C)[C@@]1(O)C(=O)CO [Dexamethasone] | 420 | 743 |
| CNC(=O)Nc1ccc2c(c1)CC[C@@]21OC(=O)N(CC(=O)N(Cc2ccc(F)cc2)[C@@H](C)C(F)(F)F)C1=O [A-485] | 305 | 334 |
| CC[C@@]1(O)C(=O)OCc2c1cc1n(c2=O)Cc2cc3c(CN(C)C)c(O)ccc3nc2-1 [Topotecan hydrochloride] | -710 | -194 |
| C[C@@H]1OCC2(CCN(c3cnc(Sc4ccnc(N)c4Cl)c(N)n3)CC2)[C@@H]1N [TNO-155] | 176 | 322 |
| O=C(N[C@@H](Cc1coc2ccccc12)B(O)O)[C@@H]1C[C@H]2CC[C@@H]1O2 [LMP7-IN-1] | -335 | -55.7 |
| CCOC(=O)[C@@H](N)CCC(=O)N[C@@H](CSCc1ccccc1)C(=O)N[C@@H](C(=O)OCC)c1ccccc1 [Ezatiostat] | -271 | -222 |
| CC(C)Nc1cc(-c2c[nH]c(C(=O)N[C@H](CO)c3cccc(Cl)c3)c2)c(Cl)cn1 [Ulixertinib] | -564 | -674 |
| Nc1nc(OCc2ccccc2)c2nc[nH]c2n1 [O6-Benzylguanine] | -248 | 45.7 |
| COc1ccc(C(=O)N2CCN(c3ccc4c(c3)CCC(=O)N4)CC2)cc1OC [Vesnarinone] | 628 | 706 |
| Cc1cc(F)c(C(=O)Nc2cccc(-c3nncn3C(C)C)n2)cc1-n1cnc(C2CC2)c1 [Selonsertib] | 496 | 231 |
| CC(C)NC[C@@H](C(=O)N1CCN(c2ncnc3c2[C@H](C)C[C@H]3O)CC1)c1ccc(Cl)cc1 [Ipatasertib] | 85.6 | -60.3 |
| O=C(NCc1cc(F)cc(F)c1)[C@@]1(O)CCN(c2ccc3[nH]ccc3c2)C1=O [M8891] | 34 | 171 |
| COc1cc2c(cc1-c1c(C)noc1C)cc(C)c(=O)n2Cc1ccccn1 [ODM-207] | 182 | -3.62 |
| O=C1CC[C@H](N2Cc3c(OCc4ccc(CN5CCOCC5)cc4)cccc3C2=O)C(=O)N1 [Iberdomide] | 393 | 1110 |
| O=c1sn(-c2cccc3ccccc23)c(=O)n1Cc1ccccc1 [Tideglusib] | -108 | -74.2 |
| CO[C@H]1C(=O)[C@]2(C)[C@@H](OC)C[C@H]3OC[C@@]3(OC(C)=O)[C@H]2[C@H](OC(=O)c2ccccc2)[C@]2(O)C[C@H](OC(=O)[C@H](O)[C@@H](NC(=O)OC(C)(C)C)c3ccccc3)C(C)=C1C2(C)C [Cabazitaxel] | 396 | -364 |
| CN1CCN(c2ccc(Nc3ncc4cc5n(c4n3)C3(CCCCC3)CNC5=O)nc2)CC1 [Trilaciclib (hydrochloride)] | -171 | 125 |
| Cc1cnc(CNC(=O)c2c(=O)c3ccc(N4CCCN(C)CC4)nc3n3c2sc2ccccc23)cn1 [CX-5461] | 210 | 895 |
| Cc1ccc(NC(=O)NCc2ccc3c(c2)CN(C2CCC(=O)NC2=O)C3=O)cc1Cl (stereo not given) [CC-885] | 356 | 370 |
| CNCc1ccc(-c2cc(-c3nc(-c4ccc(S(=O)(=O)C(C)C)cc4)cnc3N)on2)cc1 [Berzosertib] | -219 | 144 |
| Nc1nc(NC2CC2)cc(-c2cccc(Cl)c2Cl)n1 [TH588] | -251 | -172 |
